From US20260256812A1, “COMPOSITION COMPRISING A COMBINATION OF A CORTICOSTEROID AND A FLAVONOID FOR USE IN TREATING EYE-RELATED DISEASES” (priority 2023, published 2026)

How the values were obtained:
[1] = test system: intracellular ROS in ARPE-19 cells; assay: DCFH-DA intracellular ROS assay by flow cytometry; type: cell-based, human
Experimental: ARPE-19 cells were seeded onto 6-well plates at a seeding density of 25×10^4 cells/well and incubated for 24 hr. At the 24 hr time point cells were stimulated with stimulants to induce oxidative stress. […] Upon incubation with dye, cells were detached using trypsin and resuspended in PBS for analysis using flow cytometry.
Upon stimulation and treatment, the intracellular ROS levels were measured using flow cytometry to assess the anti-oxidant effect of the treatments. The oxidation of DCFH-DA to 2′-7′dichlorofluorescein (DCF) was used for the detection of intracellular ROS levels including nitrogen dioxide and hydroxyl radicals. The cells will take up the DCFH-DA dye where cellular esterase cleaves off the acetyl groups, resulting in the formation of DCFH (2′,7′-dichlorodihydrofluorescein). Oxidation of DCFH in the presence of intracellular ROS leads to the formation of DCF. This DCF fluorescent molecule can be detected using a flow cytometer by mean fluorescence intensity (MFI).

ARPE-19 cells [2] = assay: Cytotoxicity evaluation by acid phosphatase assay (APA); type: cell-based, human
Experimental: ARPE-19 (adult retinal pigment epithelium-19) cell line was cultured using cell culture media containing a 1:1 mixture of DMEM and F-12 nutrient mixture. The media was supplemented with 10% FBS and 1% penicillin-streptomycin antibiotic mixture. During the culture, cells were maintained at 37° C. with 5% CO2 in a humidified incubator and sub-cultured with trypsin upon confluency.
Cytotoxicity evaluation of the drugs, both individually and in combination, was performed using the acid phosphatase assay (APA). The cytotoxicity assay was performed on TA and QCN from 5 to 250 μM and 1 to 250 μM, respectively. After investigating individual drugs, drug combinations were tested as outlined in Table 1.
Initially ARPE-19 cells were seeded onto a 96-well plate at a seeding density of 5000 cells/well containing 100 μL of cell culture media and cultured for 24 hr. After 24 hr, treatments were added to the wells and incubated for the period of the study (24 h and 48 hr). After the treatment period, media was removed, and cells were washed twice with PBS. Upon washing, 100 μL of 10 mM PNPP substrate dissolved in 0.1 M sodium acetate buffer was added to the wells and incubated for 2 hr. Finally, 50 μL of stop solution (1 M sodium hydroxide) was added and the plate was analysed in the plate reader at 405 nm.

IL-6 = IL-6 ELISA on ARPE-19 cell supernatants; type: cell-based, human
Experimental: The human IL-6, IL-8, MCP-1, and VEGF-C ELISA kits were used according to the manufacturer's protocol to investigate the cytokine secretions in the cell supernatants. Cells were seeded onto a 24-well plate at a seeding density of 3×10^4 cells/well with 500 μL of cell culture media and cultured for 24 hr. Cells were kept overnight in low serum media (with 1% FBS) to synchronise their growth phase before stimulating inflammation. […] Upon stimulation, cells were exposed to various treatments of drugs alone and in combination for 24 hr. After the treatment duration media conditioned by treated cells were collected and analysed for the cytokines and VEGF-C secretions using the ELISA kits. ELISA was performed according to the manufacturer's protocol.

VEGF-C = assay: Anti-VEGF activity, VEGF-C ELISA on LPS-stimulated ARPE-19 cells; type: cell-based, human
Experimental: The human IL-6, IL-8, MCP-1, and VEGF-C ELISA kits were used according to the manufacturer's protocol to investigate the cytokine secretions in the cell supernatants. Cells were seeded onto a 24-well plate at a seeding density of 3×10^4 cells/well with 500 μL of cell culture media and cultured for 24 hr. Cells were kept overnight in low serum media (with 1% FBS) to synchronise their growth phase before stimulating inflammation. After 24 hr cells were stimulated with 10 μg/mL LPS to induce inflammation for a duration of 24 hr. Upon stimulation, cells were exposed to various treatments of drugs alone and in combination for 24 hr. After the treatment duration media conditioned by treated cells were collected and analysed for the cytokines and VEGF-C secretions using the ELISA kits. ELISA was performed according to the manufacturer's protocol.

ARPE-19 cells [3] = assay: Scratch (wound healing, cell migration) assay; type: cell-based, human; settings: QCN 20 μM; TA 100 μM; TA 100+QCN 20 μM; 1% FBS
Experimental: For the scratch or wound healing assay cells were seeded onto six-well plates with a seeding density of 25×10^4 cells/well. Upon reaching 80-90% confluency, a sterile 200 μL pipette tip was used to scrape the confluent monolayer of cells in a horizontal line. After creating the scratch, cell debris was washed with PBS and the cell culture media containing treatments was added to each well. The scratch was photographed using an Olympus EP50 microscope at 10× magnification at 0, 6, 9, 24, 27 and 30 h. “Image J” software was used to analyse the width of the scratch.
The major cause of irreversible vision loss is the exudative form of AMD, which is characterized by CNV where the newly formed blood vessels protrude from the choroid to the retina through Bruch's membrane. Even though the mechanism of CNV is not fully understood, some pathological studies point to the connection between CNV and sub-RPE deposits. Additionally, focal inflammation leads to focal thinning and damage of Bruch's membrane in patients of AMD. RPE cells are essential for the maintenance of photoreceptor cells as they provide nutrients. But the contact between RPE and photoreceptor cells was disrupted due to the accumulation of sub-RPE deposits and the interference of branched blood vessels. […] Upon seeding 25×10^4 cells/well and reaching around 90% confluency, the wounds were created and measured using image ‘J’ software. […]

DPPH antioxidant assay = assay: DPPH antioxidant assay
Experimental: The DPPH assay was performed in a 96-well plate where 20 μL of methanolic DPPH solution was added to 180 μL of methanolic solutions of treatments. Based on the outcome from anti-inflammatory studies, the higher concentrations of TA and QCN, both individually and in combination were investigated for antioxidant activity (TA 75, 100 μM and QCN 15, 20 μM). This reaction mixture was incubated for 30 min in darkness at room temperature and the absorbance was measured at 517 nm using a microplate reader.

[4] = 10 μg/mL LPS 24 hr, then 24 hr treatment
[5] = TA 10 to 250 μM, 24 hr and 48 hr

OO [H2O2, hydrogen peroxide]
MFI of stimulated stained cells ([1]; HP at 300 μM, unstimulated stained printed as 3.73±0.29, P value <0.05): 2.01±0.10
cell viability with stimulant (ARPE-19 cells [2]; H2O2 200 and 300 μM, up to 48 h): decrease in cell viability

CC1(C)O[C@@H]2C[C@H]3[C@@H]4CCC5=CC(=O)C=C[C@]5(C)[C@@]4(F)[C@@H](O)C[C@]3(C)[C@]2(C(=O)CO)O1 [TA, triamcinolone acetonide]
concentration showing maximum inhibition of IL-6 expression (IL-6; [4]): 100 µM
cell morphology (ARPE-19 cells [2]; [5]): no changes in cell morphology
viability of cells (ARPE-19 cells [2]; [5]): not affected

lipopolysaccharide [LPS]
IL-6 cytokine on stimulation (IL-6; LPS stimulation from 10 to 50 μg/mL): consistently increased
cytotoxicity of stimulant (ARPE-19 cells [2]; LPS 0.5 to 100 μg/mL, up to 48 h): non-toxic

O=c1c(O)c(-c2ccc(O)c(O)c2)oc2cc(O)cc(O)c12 [QCN, quercetin]
VEGF-C concentration (VEGF-C; QCN 20 μM, control LPS stimulated 1.96±2.05): 0.83 ± 0.02 µg/mL
expression of VEGF-C compared to LPS stimulated cells (VEGF-C; TA 75, 100 μM, QCN 15, 20 μM, individually and in combination): better suppression
migration of the cells (ARPE-19 cells [3]): enhanced the migration
inhibition of DPPH (DPPH antioxidant assay; QCN 20 μM): 66.71±0.61%
anti-oxidant effect on DPPH free radical (DPPH antioxidant assay; TA 75, 100 μM, QCN 15, 20 μM, 30 min): strong anti-oxidant effect
IL-6 expression compared to LPS stimulated cells (IL-6; [4]): decreased
concentration showing maximum inhibition of IL-6 expression (IL-6; [4]): 20 µM
generated ROS (MFI) compared to control stimulated stained cells ([1]; 300 μM H2O2, TA 75, 100 μM, QCN 15, 20 μM, individually and in combination, 24 hr): significantly suppressed
cell viability (ARPE-19 cells [2]; QCN 1 to 20 μM): more than 90%
effect on cells at higher concentrations (ARPE-19 cells [2]; QCN above 25 μM, up to 250 μM): toxic effects
cell viability (ARPE-19 cells [2]; QCN concentration up to 25 μM, 24 hr and 48 hr): more than 80%
